Reference: PubChem BioAssay AID2423 (Broad Institute, 2010)
Records with an inconclusive call do not appear. Activity calls are given as the source filed them. No rule for the calls is given here.

Test system: C. albicans CaCi-8 + fluconazole, Alamar Blue growth, 48 h
Assay: resistant C. albicans growth inhibition with fluconazole, dose response, CaCi-8 strain, Alamar Blue fluorescence (AID 2423)

SMILES | EC50
CC1=C/C(=N\NC(=S)NCCc2ccccc2)CC(C)(C)C1 | > 15000 nM (inactive)
O=c1c2ccccc2nc(/C=C/c2ccc([N+](=O)[O-])o2)n1CCCO | 153 nM
CNC(=O)c1ccc2c(c1)nnn2C | > 15000 nM (inactive)
Cn1c(SCC(=O)N2CCCc3ccccc32)nnc1-c1ccccc1 | > 16000 nM (inactive)
C/C(=N\NC(=O)c1nn(C)c(C)c1Br)c1ccc(NC(=O)C2CCCC2)cc1 | > 15000 nM (inactive)
O=C(CCC(=O)Nc1ccccc1Cl)NNS(=O)(=O)c1ccc(Cl)cc1 | > 16000 nM (inactive)
CCN(CC)S(=O)(=O)c1ccc(N/N=C/c2ccc(O)cc2O)nc1 | 644 nM
O=C(N/N=C/c1c(O)ccc2ccccc12)c1cccc(C(F)(F)F)c1 | 242 nM
N#C/C(C(N)=O)=c1/ccc2c(c1)N1C3=C(CCCC3)CC3CCCCC31N=2 (centres undefined) | 3120 nM
CCCOCc1ccc(O)c2ncccc12 | 2170 nM
C=CCc1c(C)c(C#N)c2nc3ccccc3n2c1NCCN(C)C | 896 nM
Cn1c(NN=O)nc2ccccc21 | > 15000 nM (inactive)
CCOC(=O)c1ccccc1NC(=O)c1cccc([N+](=O)[O-])c1 | > 15000 nM (inactive)
COc1ccc(N(C(=O)Cn2nnc3ccccc32)C(C(=O)NC(C)(C)C)c2ccc(OC)c(O)c2)cc1 (centres undefined) | 2210 nM
O=C(N/N=C/c1ccc(Cl)cc1Cl)Nc1ccccc1 | > 16000 nM (inactive)
Brc1ccc(CSc2nnc(-c3cnccn3)n2Cc2ccco2)cc1 | 2010 nM
COc1ccc(C(=O)NC(=S)NNC(=O)CCc2ccccc2)cc1 | 3200 nM
CCOC(=O)N1C(=O)C2(CCCCC2)N(c2ccccc2Cl)C1=S | 1990 nM
Cc1ccc(C(=O)c2coc3cc([N+](=O)[O-])c(O)c([N+](=O)[O-])c23)cc1 | 1230 nM
Cc1nc(C)c(C(=O)N/N=C/c2cc(Br)ccc2O)s1 | 2120 nM
COc1ccc(-c2n[nH]c(C)c2-c2cnn(-c3ccccc3)c2)c(O)c1 | 9760 nM
O=C(Oc1cc2oc(=O)c3c(c2cc1Cl)CCCC3)c1cccs1 | 653 nM

SMILES | EC50
CC(C)c1noc2ncc(C(=O)c3cc(Cl)cc(Cl)c3O)cc12 | 2910 nM
O=C(c1ccc(Cn2c(=S)[nH]c3ccccc3c2=O)cc1)N1CCN(c2ccccn2)CC1 | 695 nM
COc1cccc(/C=N/NC(=O)C(=O)Nc2ccccc2OC(F)(F)C(F)F)c1O | 1020 nM
COc1ccc(OC)c(Nc2nc(-c3ccc(O)c(O)c3)cs2)c1 | 10800 nM
Cc1ccc(C(=O)c2oc3nc(C)cc(C)c3c2N)cc1 | 5280 nM
Cc1ccnc(NC(c2cccnc2)c2ccc3cccnc3c2O)c1 (centres undefined) | 13100 nM
O=C(Nc1nnc(-c2ccco2)o1)c1cccc(Cl)c1 | 859 nM
O=C1C=C(NCc2ccccc2)c2ccccc2C1=O | 1860 nM
COc1cc(OC)cc(N(C(=O)C2COc3ccccc3O2)C(C(=O)NC2CCCCC2)c2ccc(O)cc2)c1 (centres undefined) | > 16000 nM (inactive)
O=C(N/N=C/c1ccncc1)c1cc2ccccc2cc1O | > 15000 nM (inactive)
CCCc1ccc(/C=C2\C(=O)c3ccccc3C(O)=C2C(=O)OCC)cc1 | > 15000 nM (inactive)
Cc1ccc(-c2nc3c(Cl)cc(Cl)cc3c(=O)n2O)cc1 | 1110 nM
CCc1nnc(NC(=O)CSc2nc(SC)ns2)s1 | 1490 nM
Oc1ccc(/C=N/n2c(COc3ccccc3)n[nH]c2=S)cc1O | 16300 nM
Cc1cc(NCCCn2ccnc2)n2ncc(-c3ccc(Cl)cc3)c2n1 | 1310 nM
COc1cccc2c(SCC(=O)N/N=C/c3ccc(O)c(O)c3)cc(C)nc12 | > 16000 nM (inactive)
CCN(CC)c1ccc(/C=C/c2ccc3ccc(OC)cc3[n+]2CC)cc1 | 149 nM
Oc1ccc(Cl)cc1C1=NNC(c2cc(Br)cc3c2OCOC3)C1 (centres undefined) | > 16000 nM (inactive)
CC1=C(CC[C@@H](C)CO)OC2CC3C4CCC5CC(O)CCC5(C)C4CC(=O)C3(C)C12 (some centres undefined) | 135 nM
COCCCN1C(=O)C(=O)/C(=C(/O)c2ccc(OCC(C)C)cc2C)C1c1cccnc1 (centres undefined) | > 15000 nM (inactive)
O=C1CC(c2ccccc2)CC(=NCCO)/C1=C(\O)CCCN1C(=O)c2ccccc2C1=O (centres undefined) | > 15000 nM (inactive)
Cc1ccc(O)c(N=Cc2cc(Cc3ccccc3)cc([N+](=O)[O-])c2O)c1 | 13700 nM

SMILES | EC50
CCOc1cccc(-c2c(C(=O)N/N=C(\C)c3ccccn3)nnn2-c2nonc2N)c1 | 15600 nM
Cc1cccc(C(=O)O/N=C/c2c(N3CCOCC3)n(C)c3ccccc23)c1 | 799 nM
Cc1cc(SCC(=O)N/N=C/c2ccc(O)cc2O)c(C)cc1Br | 5010 nM
O=C(Nc1nnc(-c2ccc3c(c2)CCCC3)o1)c1ccccc1 | 484 nM
CCN(CC)C(=O)/C(=C/c1ccc2c(c1)OCO2)NC(=O)c1ccc(Br)cc1 | 1200 nM
O=[N+]([O-])c1cc(S(=O)(=O)C(F)(F)F)ccc1Sc1nc2ccccc2s1 | 3200 nM
CCOc1ccccc1C(=O)Nc1ccc2nc3n(c(=O)c2c1)CCCCC3 | 2510 nM
Cn1c(N2CCOCC2)c(/C=N/OC(=O)c2ccc(F)cc2)c2ccccc21 | 630 nM
Cc1c(Cc2ccccc2)c(=O)oc2c(O)c(O)ccc12 | 2750 nM
COc1ccc(Cl)cc1C(Nc1cccnc1)c1ccc2cccnc2c1O (centres undefined) | 1020 nM
Nc1nc(N)c2cc(Sc3ccc4ccccc4c3)ccc2n1 | 1180 nM
CCNC(=S)NNC(=O)c1cc(-c2cccc(C)c2)nc2ccccc12 | 2270 nM
O=[N+]([O-])c1cc(/C=N/Nc2nc3ccccc3[nH]2)c(O)cc1O | 6220 nM
CN1CCN(C(c2ccc(C(F)(F)F)cc2)c2cc(Cl)c3cccnc3c2O)CC1 (centres undefined) | 787 nM
Cc1cc(C(=O)Nc2sc3c(c2C#N)CCCC3)no1 | 979 nM
CN(C)c1cc(N/N=C/c2ccc(Cl)cc2)nc(N(C)C)n1 | 695 nM
COC(=O)c1c[nH]n2c(=O)c(Cc3ccc(F)cc3Cl)c(C)nc12 | 755 nM
O=C(NNC(=S)Nc1cccc(C(F)(F)F)c1)c1ccc(Cl)cc1Cl | 1970 nM
Cc1csc2ncnc(NCCc3ccccn3)c12 | 6030 nM
CCOC(=O)c1c(-c2ccccc2Cl)cn2ccccc12 | 2120 nM
O=C(c1ccco1)N1CCN(c2ncnc3c(-c4ccccc4)nsc23)CC1 | 1260 nM
O=C(c1cc(-c2ccccc2)n[nH]1)N1CCc2c([nH]c3ccccc23)C1c1ccccn1 (centres undefined) | 692 nM

SMILES | EC50
Cc1ccc(C2C3CSCC=C3C(C#N)=C(N)C2(C#N)C#N)cc1 (centres undefined) | 16300 nM
Cc1cc(C)nc(NS(=O)(=O)c2ccc(NC(=O)COc3ccccc3)cc2)n1 | > 15000 nM (inactive)
O=C(c1ccc(Cn2c(=O)[nH]c3ccccc3c2=O)cc1)N1CCN(c2ccc(F)cc2)CC1 | 3250 nM
O=C1c2ccccc2NC(c2ccc(-c3ccc(Br)cc3)o2)N1O (centres undefined) | 2120 nM
O=C(OCn1ncc(Cl)c(Cl)c1=O)c1cccc(C(F)(F)F)c1 | 2460 nM
Cc1ccc(NC(=O)NNC(=O)c2cc3ccccc3cc2O)cc1C | > 16000 nM (inactive)
COc1cc(-c2nnc(SCc3cc(=O)oc4cc(O)c(O)cc34)o2)cc(OC)c1OC | 4390 nM
Cc1c(CCOC(=O)CC23CC4CC(CC(C)(C4)C2)C3)sc[n+]1Cc1ccc([N+](=O)[O-])cc1 | 11900 nM
Cc1ccccc1C(=O)NNC(=S)NC(=O)c1ccc(Cl)cc1Cl | 1390 nM
CCCCCc1ccc(OCCCC[n+]2ccc(C)cc2)c(CCCCC)c1 | > 16000 nM (inactive)
CCn1c(C)nc2cc(C(=O)NNC(=S)Nc3ccc(Cl)cc3Cl)ccc21 | 990 nM
O=C(N/N=C/c1cc(Br)c(O)c(Br)c1)c1cc2c(ccc3ccccc32)o1 | 915 nM
O=C(O)c1cccc(CSc2nc(-c3ccccc3)cc(C(F)(F)F)n2)c1 | 6820 nM
O=C(Nc1ccncc1)c1ccc(Br)cc1 | > 15000 nM (inactive)
COc1ccc(/C=C2\N=C(SC)NC2=O)cc1 | 3750 nM
O=C(Cc1nc2ccccc2s1)c1ccc(O)cc1O | 2860 nM
NC(=O)c1ccsc1NC(=O)CCS(=O)(=O)c1ccccc1 | 1730 nM
CCN(c1ccccc1)S(=O)(=O)c1ccc(Cl)c(NC(=O)CN2C(=O)NC3(CCCC3)C2=O)c1 | > 15000 nM (inactive)
N#Cc1c(-c2ccc(Cl)cc2)cc(-c2ccccc2)nc1SCC(=O)O | 1200 nM
CCn1c(=S)[nH]c2scc(-c3cccs3)c2c1=O | > 16000 nM (inactive)
COc1ccccc1N1CCN(C(=O)c2cc3cc(Cl)ccc3[nH]2)CC1 | > 15000 nM (inactive)
C[C@H]1CCC/C=C/C2C[C@H](O)CC2[C@H](O)/C=C/C(=O)O1 (some centres undefined) | 2060 nM

SMILES | EC50
CC1(C)CC(N2CCCC2)=CC(=[N+]2CCCC2)C1 | 6310 nM
O=C(O)CCCCCn1c(O)c(C=C2N=c3ccccc3=N2)sc1=S | 1640 nM
O=C(NCC(=O)N(CC1CCCO1)C(C(=O)NC1CCCCC1)c1ccccc1)c1ccco1 (centres undefined) | > 15000 nM (inactive)
Oc1ccc(N=Nc2ccccc2C(F)(F)F)c2cccnc12 | 1080 nM
C/C(CC(=O)Nc1cc(C)ccn1)=N\NC(=O)c1cccc(C)c1O | > 16000 nM (inactive)
CCOc1ccc(Nc2nc(NCC3CCCO3)c3ccccc3n2)cc1 (centres undefined) | 1980 nM
O=C(Nc1cccc(Cl)c1)Nc1nccs1 | 146 nM
Cc1cccc(N=Nc2c(C)[nH]n(C(N)=S)c2=O)c1C | 944 nM
Oc1cccc(C(Nc2nccs2)c2ccc3cccnc3c2O)c1 (centres undefined) | 1380 nM
Cc1cccc(C(=O)NC(=S)NNC(=O)Cc2ccccc2)c1 | 10600 nM
O=C(Nc1cccc(-c2nc3ccccc3s2)c1)c1cc(-n2cnnc2)ccc1Cl | 1510 nM
CCCCOc1ccc(-c2cc(C(=O)NNC(=S)NCC)c3ccccc3n2)cc1 | 1060 nM
COc1ccc(CCNC(=O)c2c(O)c3ccccc3n(C)c2=O)cc1 | > 15000 nM (inactive)
Cc1c(Nc2scc(-c3ccccc3)[n+]2-c2ccccc2)c(=O)n(-c2ccccc2)n1C | 225 nM
COc1ccc(O)c(/C=N/NC(=O)c2ccc(N3CCCC3=O)cc2)c1 | > 16000 nM (inactive)
CC1=C(C(N)=O)C(c2ccc(C)o2)C(C(N)=O)=C(C)N1 | > 16000 nM (inactive)
Cc1ccc2occ(/C=N/NC(=O)c3ccccc3O)c(=O)c2c1 | 15100 nM
CCN1/C(=C/C=C/c2oc3ccc(-c4ccccc4)cc3[n+]2CC)Oc2ccc(-c3ccccc3)cc21 | 589 nM
CCC(=O)NC(c1cccs1)c1cc([N+](=O)[O-])c2cccnc2c1O (centres undefined) | 633 nM
O=C1c2ccccc2NC(c2cnc3ccccc3n2)N1O (centres undefined) | > 16000 nM (inactive)
CC(=O)N1CCOCCOCCN(C(C)=O)CCOCCOCC1 | > 15000 nM (inactive)
